According to paper PMC11996967, “Targeting the Notch-Furin axis with 2-hydroxyoleic acid: a key mechanism in glioblastoma therapy” (Cellular Oncology, 2024):

Experiments:
furin = biological target: T1, furin (Homo sapiens, UniProt P09958); assay: SPR (Biacore X100, furin amine-coupled on CM5, steady-state affinity); also inhibits recombinant furin in a fluorimetric assay; format: binding
T1 construct: commercial recombinant Human Furin

SF-295 = assay: cells; parameters: glioma cell line sensitivity to 2OHOA, half maximal inhibitory concentration; settings: Homo sapiens, SF-295
U-251 MG = assay: cells; parameters: glioma cell line sensitivity to 2OHOA, half maximal inhibitory concentration; settings: Homo sapiens, U-251
U-87 MG = assay: cells; parameters: glioma cell line sensitivity to 2OHOA, half maximal inhibitory concentration; settings: Homo sapiens, U-87 MG
U-118 MG = assay: cells; parameters: glioma cell line sensitivity to 2OHOA, half maximal inhibitory concentration; settings: Homo sapiens, U-118-MG
SF-268 = assay: cells; parameters: glioma cell line sensitivity to 2OHOA, half maximal inhibitory concentration; settings: Homo sapiens, SF-268

T1 sequence (P09958 108-794): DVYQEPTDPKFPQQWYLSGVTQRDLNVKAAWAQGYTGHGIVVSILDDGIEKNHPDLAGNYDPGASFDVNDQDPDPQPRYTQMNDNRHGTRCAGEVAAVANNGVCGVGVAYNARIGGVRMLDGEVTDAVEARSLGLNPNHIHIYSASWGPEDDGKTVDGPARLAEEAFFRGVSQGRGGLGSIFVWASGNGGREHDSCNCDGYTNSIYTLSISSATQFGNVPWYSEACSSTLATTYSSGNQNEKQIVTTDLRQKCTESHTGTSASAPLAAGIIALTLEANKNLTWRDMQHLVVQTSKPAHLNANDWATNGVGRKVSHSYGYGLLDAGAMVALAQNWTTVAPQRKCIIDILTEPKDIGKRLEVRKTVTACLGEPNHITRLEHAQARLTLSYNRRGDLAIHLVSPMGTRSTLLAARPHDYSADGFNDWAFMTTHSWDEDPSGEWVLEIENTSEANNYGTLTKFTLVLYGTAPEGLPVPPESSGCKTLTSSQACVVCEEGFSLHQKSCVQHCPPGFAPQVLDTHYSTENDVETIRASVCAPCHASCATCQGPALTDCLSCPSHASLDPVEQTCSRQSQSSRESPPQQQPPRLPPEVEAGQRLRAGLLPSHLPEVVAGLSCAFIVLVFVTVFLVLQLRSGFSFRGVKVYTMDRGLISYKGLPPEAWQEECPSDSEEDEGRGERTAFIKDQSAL

Kd (furin): 19.5 µM
IC50 (SF-295): 300 µM
IC50 (U-251 MG): 427 µM
IC50 (U-87 MG): 172 µM
IC50 (U-118 MG): 180 µM
IC50 (SF-268): 240 µM
SMILES: CCCCCCCC/C=C\CCCCCCC(O)C(=O)O (stereo not drawn) [2OHOA, 2-hydroxy-9-cis-ocadecenoic acid]
